From US6613718B2, “Aryl ether derivatives and processes for their preparation and herbicidal and desiccant compositions containing them” (Ishihara Sangyo Kaisha, Ltd., priority 2001, dated 2003)

Columns and labels:
Format in all cases: in vivo
[1] = test system: barnyardgrass (Echinochloa crus-galli, ECHCG); assay: Pre-emerge greenhouse herbicide activity screening, phytotoxicity rating; details: 14 days after application
In short: (§1)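 Plants grown in sandy loam pots received acetone solutions of compound by moving-nozzle track sprayer, 15–1000 g ai/ha. In post-emergence runs the foliage was at the 2-3 leaf stage and spray contained 0.25% v/v non-ionic surfactant. Damage was assessed visually after 14 days (0-100).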

[2] = test system: common ragweed (Ambrosia artemisiifolia L., AMBEL); assay: as above; details: 14 days after application
In short: as §1

[3] = test system: green foxtail (Setaria viridis, SETVI); assay: as above; details: 14 days after application
In short: as §1

[4] = test system: ivyleaf morningglory (Ipomoea hederacea, IPOHE); assay: as above; details: 14 days after application
In short: as §1

[5] = test system: johnsongrass (Sorghum halepense, SORHA); assay: as above; details: 14 days after application
In short: as §1

[6] = test system: lambsquarters (Chenopodium album, CHEAL); assay: as above; details: 14 days after application
In short: as §1

[7] = test system: large crabgrass (Digitaria sanguinalis, DIGSA); assay: as above; details: 14 days after application
In short: as §1

[8] = test system: redroot pigweed (Amaranthus retroflexus, AMARE); assay: as above; details: 14 days after application
In short: as §1

[9] = test system: sicklepod (Cassia obtusifolia, CASOB); assay: as above; details: 14 days after application
In short: as §1

[10] = test system: velvetleaf (Abutilon theophrasti, ABUTH); assay: as above; details: 14 days after application
In short: as §1

[11] = test system: field corn (Zea mays L., var. Dekalb 535, CORN); assay: Pre-emerge greenhouse screening, crop safety (phytotoxicity rating); details: 14 days after application
In short: as §1

[12] = test system: soybean (Glycine max L., var. Pella 86, SOY); assay: as above; details: 14 days after application
In short: as §1

[13] = test system: upland rice (Oryza sp., var.Tebonnet, RICE); assay: as above; details: 14 days after application
In short: as §1

[14] = test system: barnyardgrass (Echinochloa crus-galli, ECHCG); assay: Post-emerge greenhouse herbicide activity screening, phytotoxicity rating; details: 14 days after application
In short: as §1

[15] = test system: common ragweed (Ambrosia artemisiifolia L., AMBEL); assay: as above
In short: as §1

[16] = test system: green foxtail (Setaria viridis, SETVI); assay: as above
In short: as §1

[17] = test system: ivyleaf morningglory (Ipomoea hederacea, IPOHE); assay: as above; details: 14 days after application
In short: as §1

[18] = test system: johnsongrass (Sorghum halepense, SORHA); assay: as above; details: 14 days after application
In short: as §1

[19] = test system: lambsquarters (Chenopodium album, CHEAL); assay: as above
In short: as §1

[20] = test system: large crabgrass (Digitaria sanguinalis, DIGSA); assay: as above; details: 14 days after application
In short: as §1

[21] = test system: redroot pigweed (Amaranthus retroflexus, AMARE); assay: as above
In short: as §1

[22] = test system: sicklepod (Cassia obtusifolia, CASOB); assay: as above
In short: as §1

[23] = test system: velvetleaf (Abutilon theophrasti, ABUTH); assay: as above; details: 14 days after application
In short: as §1

[24] = test system: field corn (Zea mays L., var. Dekalb 535, CORN); assay: Post-emerge greenhouse screening, crop safety / corn selectivity (phytotoxicity rating); details: 14 days after application
In short: as §1

[25] = test system: soybean (Glycine max L., var. Pella 86, SOY); assay: Post-emerge greenhouse screening, crop safety (phytotoxicity rating); details: 14 days after application
In short: as §1

[26] = test system: upland rice (Oryza sp., var.Tebonnet, RICE); assay: as above; details: 14 days after application
In short: as §1

[27] = 125 g ai/ha, 14 days after application
[28] = 250 g ai/ha, 14 days after application

For `Cn1c(C(F)(F)F)cc(=O)n(-c2cc(Oc3ccccc3)c(C#N)cc2F)c1=S` [Compound 1-69], the “ECHCG phytotoxicity rating (0-100 scale)” value ([1]; 125 g ai/ha) was 90, the “ECHCG phytotoxicity rating (0-100 scale)” value ([1]; 250 g ai/ha) was 95 and the “AMBEL phytotoxicity rating (0-100 scale)” value ([2]; 125 g ai/ha) was 100. For the same compound, the “AMBEL phytotoxicity rating (0-100 scale)” value ([2]; 250 g ai/ha) was 100, the “SETVI phytotoxicity rating (0-100 scale)” value ([3]; 125 g ai/ha) was 100 and the “SETVI phytotoxicity rating (0-100 scale)” value ([3]; 250 g ai/ha) was 100. The “IPOHE phytotoxicity rating (0-100 scale)” value ([4]; 125 g ai/ha) was 100, the “IPOHE phytotoxicity rating (0-100 scale)” value ([4]; 250 g ai/ha) was 100 and the “SORHA phytotoxicity rating (0-100 scale)” value ([5]; 125 g ai/ha) was 95. The “SORHA phytotoxicity rating (0-100 scale)” value ([5]; 250 g ai/ha) was 95, the “CHEAL phytotoxicity rating (0-100 scale)” value ([6]; 125 g ai/ha) was 100 and the “CHEAL phytotoxicity rating (0-100 scale)” value ([6]; 250 g ai/ha) was 100. For the same compound, the “DIGSA phytotoxicity rating (0-100 scale)” value ([7]; 125 g ai/ha) was 99, the “DIGSA phytotoxicity rating (0-100 scale)” value ([7]; 250 g ai/ha) was 100 and the “AMARE phytotoxicity rating (0-100 scale)” value ([8]; 125 g ai/ha) was 100. For the same compound, the “AMARE phytotoxicity rating (0-100 scale)” value ([8]; 250 g ai/ha) was 100, the “CASOB phytotoxicity rating (0-100 scale)” value ([9]; 125 g ai/ha) was 100 and the “CASOB phytotoxicity rating (0-100 scale)” value ([9]; 250 g ai/ha) was 99. The “ABUTH phytotoxicity rating (0-100 scale)” value ([10]; 125 g ai/ha) was 100, the “ABUTH phytotoxicity rating (0-100 scale)” value ([10]; 250 g ai/ha) was 100 and the “CORN crop damage, phytotoxicity rating (0-100 scale)” value (from here on “CORN crop damage”) ([11]; 125 g ai/ha) was 5. For the same compound, the “CORN crop damage” value ([11]; 250 g ai/ha) was 10, the “SOY crop damage, phytotoxicity rating (0-100 scale)” value (“SOY crop damage” below) ([12]; 125 g ai/ha) was 30 and the “SOY crop damage” value ([12]; 250 g ai/ha) was 50. For the same compound, the “RICE crop damage, phytotoxicity rating (0-100 scale)” value (from here on “RICE crop damage”) ([13]; 125 g ai/ha) was 50, the “RICE crop damage” value ([13]; 250 g ai/ha) was 60 and the “ECHCG phytotoxicity rating (0-100 scale)” value ([14]; 125 g ai/ha) was 0. The “ECHCG phytotoxicity rating (0-100 scale)” value ([14]; 250 g ai/ha) was 25, the “AMBEL phytotoxicity rating (0-100 scale)” value ([15]; 31.3 g ai/ha) was 70 and the “AMBEL phytotoxicity rating (0-100 scale)” value ([15]; 62.5 g ai/ha) was 70. For the same compound, the “AMBEL phytotoxicity rating (0-100 scale)” value [15, 27] was 30, the “AMBEL phytotoxicity rating (0-100 scale)” value [15, 28] was 35 and the “SETVI phytotoxicity rating (0-100 scale)” value ([16]; 31.3 g ai/ha) was 0. For the same compound, the “SETVI phytotoxicity rating (0-100 scale)” value ([16]; 62.5 g ai/ha) was 50, the “SETVI phytotoxicity rating (0-100 scale)” value [16, 27] was 0 and the “SETVI phytotoxicity rating (0-100 scale)” value [16, 28] was 30. The “IPOHE phytotoxicity rating (0-100 scale)” value ([17]; 125 g ai/ha) was 100, the “IPOHE phytotoxicity rating (0-100 scale)” value ([17]; 250 g ai/ha) was 100 and the “SORHA phytotoxicity rating (0-100 scale)” value ([18]; 125 g ai/ha) was 0. The “SORHA phytotoxicity rating (0-100 scale)” value ([18]; 250 g ai/ha) was 0, the “CHEAL phytotoxicity rating (0-100 scale)” value ([19]; 31.3 g ai/ha) was 80 and the “CHEAL phytotoxicity rating (0-100 scale)” value ([19]; 62.5 g ai/ha) was 80. For the same compound, the “CHEAL phytotoxicity rating (0-100 scale)” value [19, 27] was 100, the “CHEAL phytotoxicity rating (0-100 scale)” value [19, 28] was 100 and the “DIGSA phytotoxicity rating (0-100 scale)” value ([20]; 125 g ai/ha) was 0. The “DIGSA phytotoxicity rating (0-100 scale)” value ([20]; 250 g ai/ha) was 30, the “AMARE phytotoxicity rating (0-100 scale)” value ([21]; 31.3 g ai/ha) was 100 and the “AMARE phytotoxicity rating (0-100 scale)” value ([21]; 62.5 g ai/ha) was 100. For the same compound, the “AMARE phytotoxicity rating (0-100 scale)” value [21, 27] was 99, the “AMARE phytotoxicity rating (0-100 scale)” value [21, 28] was 100 and the “CASOB phytotoxicity rating (0-100 scale)” value ([22]; 31.3 g ai/ha) was 50. The “CASOB phytotoxicity rating (0-100 scale)” value ([22]; 62.5 g ai/ha) was 65, the “CASOB phytotoxicity rating (0-100 scale)” value [22, 27] was 75 and the “CASOB phytotoxicity rating (0-100 scale)” value [22, 28] was 70. For the same compound, the “ABUTH phytotoxicity rating (0-100 scale)” value ([23]; 125 g ai/ha) was 100, the “ABUTH phytotoxicity rating (0-100 scale)” value ([23]; 250 g ai/ha) was 100 and the “CORN crop damage” value ([24]; 125 g ai/ha) was 0. For the same compound, the “CORN crop damage” value ([24]; 250 g ai/ha) was 5, the “SOY crop damage” value ([25]; 125 g ai/ha) was 0 and the “SOY crop damage” value ([25]; 250 g ai/ha) was 50. For the same compound, the “RICE crop damage” value ([26]; 125 g ai/ha) was 0 and the “RICE crop damage” value ([26]; 250 g ai/ha) was 0.
